# Assay results reported in patent US9518018B2, “3-alkoxy, thioalkyl and amino-4-amino-6-(substituted)picolinates and their use as herbicides” (Dow AgroSciences LLC, priority 2011, dated 2016).
# Test system: desired test plant species
# Assay: Foliar-applied postemergence herbicidal activity in direct seeded rice (Table 6)
# Assay type: in vivo
# Conditions: 21 DAA
# Excerpt: Seeds or nutlets of the desired test plant species were planted in a soil matrix prepared by mixing a loam soil (43 percent silt, 19 percent clay, and 38 percent sand, with a pH of about 8.1 and an organic matter content of about 1.5 percent) and river sand in an 80 to 20 ratio. The soil matrix was contained in plastic pots with a surface area of 139.7 cm^2. When required to ensure good germination and healthy plants, a fungicide treatment and/or other chemical or physical treatment was applied. The plants were grown for 10-17 d in a greenhouse with an approximate 14-h photoperiod which was maintained at about 29° C. during the day and 26° C. during the night. Nutrients and water were added on a regular basis and supplemental lighting was provided with overhead metal halide 1000-Watt lamps as necessary. The plants were employed for testing when they reached the second or third true leaf stage. Treatments consisted of compounds 45, 34, and 66. Weighed amounts of technical compounds were placed in individual 25 mL glass vials and dissolved in 8 mL of 97:3 v/v acetone-DMSO to obtain stock solutions. […] The spray application solutions were prepared by removing 4 mL of the stock solution and diluting with 4 mL of 97:3 v/v acetone-DMSO and continued serial dilution to obtain 1⁄2×, 1⁄4×, 1⁄8×, and 1/16× rates of the high rate. Spray solutions were diluted to the appropriate final concentrations with the addition of 8 mL of an aqueous mixture of 1.875% (v/v) Agri-dex crop oil concentrate. The final 12-mL spray solutions each contained 1.25% (v/v) Agri-dex crop oil concentrate, 32.3% acetone, and 1.0% DMSO. Compound requirements are based upon a 12 mL application volume at a rate of 187 L/ha. Spray solutions were applied to the plant material with an overhead Mandel track sprayer equipped with […] nozzles calibrated to deliver 187 L/ha over an application area of 0.503 square meters (m^2) at a spray height of 18 inches ([…]) above average plant canopy height. Control plants were sprayed in the same manner with the solvent blank. The treated plants and control plants were placed in a greenhouse as described above and watered by sub-irrigation to prevent wash-off of the test compounds. After approximately 3 weeks, the condition of the test plants, compared with that of the untreated plants, was determined visually and scored on a scale of 0 to 100 percent where 0 corresponds to no injury and 100 corresponds to complete kill. By applying the well-accepted probit analysis as described by J. Berkson in Journal of the […], 48, 565 (1953) and by D. Finney in “Probit Analysis” Cambridge University Press (1952) or by plotting the mean data and fitting a logarithmic curve to the portion of the data where there was a dose response using Microsoft Excel®, the above data can be used to calculate GR50 and GR90 values, which are defined as growth reduction factors that correspond to the effective dose of herbicide required to kill or control 50 percent or 90 percent, respectively, of a target plant.
smiles,measurement,setting,value
"COc1c(C(=O)OCc2ccccc2)nc(-c2ccc(Cl)c(OC)c2F)c(F)c1N [Compound 66, benzyl 4-amino-6-(4-chloro-2-fluoro-3-methoxyphenyl)-5-fluoro-3-methoxypicolinate]",Mean Visual Injury (%)-21 Days After Application AESSE,"AESSE (Aeschynomene sensitiva, sensitive jointvetch), 4.38 g ae/ha",100%
same,Mean Visual Injury (%)-21 Days After Application AESSE,"AESSE (Aeschynomene sensitiva, sensitive jointvetch), 8.75 g ae/ha",100%
same,Mean Visual Injury (%)-21 Days After Application AESSE,"AESSE (Aeschynomene sensitiva, sensitive jointvetch), 17.5 g ae/ha",100%
same,Mean Visual Injury (%)-21 Days After Application AESSE,"AESSE (Aeschynomene sensitiva, sensitive jointvetch), 35 g ae/ha",100%
same,Mean Visual Injury (%)-21 Days After Application AESSE,"AESSE (Aeschynomene sensitiva, sensitive jointvetch), 70 g ae/ha",100%
same,GR50 AESSE,"AESSE (Aeschynomene sensitiva, sensitive jointvetch), dose to kill or control 50 percent",<4.38 g ae/ha
same,GR90 AESSE,"AESSE (Aeschynomene sensitiva, sensitive jointvetch), dose to kill or control 90 percent",<4.38 g ae/ha
same,Mean Visual Injury (%)-21 Days After Application BRAPP,"BRAPP (Brachiaria platyphylla, broadleaf signalgrass), 2.19 g ae/ha",53%
same,Mean Visual Injury (%)-21 Days After Application BRAPP,"BRAPP (Brachiaria platyphylla, broadleaf signalgrass), 4.38 g ae/ha",72%
same,Mean Visual Injury (%)-21 Days After Application BRAPP,"BRAPP (Brachiaria platyphylla, broadleaf signalgrass), 8.75 g ae/ha",83%
same,Mean Visual Injury (%)-21 Days After Application BRAPP,"BRAPP (Brachiaria platyphylla, broadleaf signalgrass), 17.5 g ae/ha",90%
same,Mean Visual Injury (%)-21 Days After Application BRAPP,"BRAPP (Brachiaria platyphylla, broadleaf signalgrass), 35 g ae/ha",87%
same,Mean Visual Injury (%)-21 Days After Application BRAPP,"BRAPP (Brachiaria platyphylla, broadleaf signalgrass), 70 g ae/ha",93%
same,GR50 BRAPP,"BRAPP (Brachiaria platyphylla, broadleaf signalgrass), dose to kill or control 50 percent",<2.19 g ae/ha
same,GR90 BRAPP,"BRAPP (Brachiaria platyphylla, broadleaf signalgrass), dose to kill or control 90 percent",34.4 g ae/ha
same,Mean Visual Injury (%)-21 Days After Application CYPDI,"CYPDI (Cyperus difformis, small-flower flatsedge), 2.19 g ae/ha",70%
same,Mean Visual Injury (%)-21 Days After Application CYPDI,"CYPDI (Cyperus difformis, small-flower flatsedge), 4.38 g ae/ha",91%
same,Mean Visual Injury (%)-21 Days After Application CYPDI,"CYPDI (Cyperus difformis, small-flower flatsedge), 8.75 g ae/ha",96%
same,Mean Visual Injury (%)-21 Days After Application CYPDI,"CYPDI (Cyperus difformis, small-flower flatsedge), 17.5 g ae/ha",100%
same,Mean Visual Injury (%)-21 Days After Application CYPDI,"CYPDI (Cyperus difformis, small-flower flatsedge), 35 g ae/ha",99%
same,Mean Visual Injury (%)-21 Days After Application CYPDI,"CYPDI (Cyperus difformis, small-flower flatsedge), 70 g ae/ha",97%
same,GR50 CYPDI,"CYPDI (Cyperus difformis, small-flower flatsedge), dose to kill or control 50 percent",<2.19 g ae/ha
same,GR90 CYPDI,"CYPDI (Cyperus difformis, small-flower flatsedge), dose to kill or control 90 percent",6.6 g ae/ha
same,Mean Visual Injury (%)-21 Days After Application CYPES,"CYPES (Cyperus esculentus, yellow nutsedge), 2.19 g ae/ha",60%
same,Mean Visual Injury (%)-21 Days After Application CYPES,"CYPES (Cyperus esculentus, yellow nutsedge), 4.38 g ae/ha",67%
same,Mean Visual Injury (%)-21 Days After Application CYPES,"CYPES (Cyperus esculentus, yellow nutsedge), 8.75 g ae/ha",93%
same,Mean Visual Injury (%)-21 Days After Application CYPES,"CYPES (Cyperus esculentus, yellow nutsedge), 35 g ae/ha",94%
same,Mean Visual Injury (%)-21 Days After Application CYPES,"CYPES (Cyperus esculentus, yellow nutsedge), 70 g ae/ha",95%
same,GR50 CYPES,"CYPES (Cyperus esculentus, yellow nutsedge), dose to kill or control 50 percent",<2.19 g ae/ha
same,GR90 CYPES,"CYPES (Cyperus esculentus, yellow nutsedge), dose to kill or control 90 percent",13.1 g ae/ha
same,Mean Visual Injury (%)-21 Days After Application CYPIR,"CYPIR (Cyperus iria, rice flatsedge), 2.19 g ae/ha",43%
same,Mean Visual Injury (%)-21 Days After Application CYPIR,"CYPIR (Cyperus iria, rice flatsedge), 4.38 g ae/ha",81%
same,Mean Visual Injury (%)-21 Days After Application CYPIR,"CYPIR (Cyperus iria, rice flatsedge), 8.75 g ae/ha",99%
same,Mean Visual Injury (%)-21 Days After Application CYPIR,"CYPIR (Cyperus iria, rice flatsedge), 17.5 g ae/ha",100%
same,Mean Visual Injury (%)-21 Days After Application CYPIR,"CYPIR (Cyperus iria, rice flatsedge), 35 g ae/ha",100%
same,Mean Visual Injury (%)-21 Days After Application CYPIR,"CYPIR (Cyperus iria, rice flatsedge), 70 g ae/ha",99%
same,GR50 CYPIR,"CYPIR (Cyperus iria, rice flatsedge), dose to kill or control 50 percent",2.4 g ae/ha
same,GR90 CYPIR,"CYPIR (Cyperus iria, rice flatsedge), dose to kill or control 90 percent",6.4 g ae/ha
same,Mean Visual Injury (%)-21 Days After Application ECHCG,"ECHCG (Echinochloa crus-galli, barnyardgrass), 2.19 g ae/ha",78%
same,Mean Visual Injury (%)-21 Days After Application ECHCG,"ECHCG (Echinochloa crus-galli, barnyardgrass), 4.38 g ae/ha",86%
same,Mean Visual Injury (%)-21 Days After Application ECHCG,"ECHCG (Echinochloa crus-galli, barnyardgrass), 8.75 g ae/ha",95%
same,Mean Visual Injury (%)-21 Days After Application ECHCG,"ECHCG (Echinochloa crus-galli, barnyardgrass), 17.5 g ae/ha",96%
same,Mean Visual Injury (%)-21 Days After Application ECHCG,"ECHCG (Echinochloa crus-galli, barnyardgrass), 35 g ae/ha",97%
same,Mean Visual Injury (%)-21 Days After Application ECHCG,"ECHCG (Echinochloa crus-galli, barnyardgrass), 70 g ae/ha",95%
same,GR50 ECHCG,"ECHCG (Echinochloa crus-galli, barnyardgrass), dose to kill or control 50 percent",<42.19 g ae/ha
same,GR90 ECHCG,"ECHCG (Echinochloa crus-galli, barnyardgrass), dose to kill or control 90 percent",8.3 g ae/ha
same,Mean Visual Injury (%)-21 Days After Application ECHCO,"ECHCO (Echinochloa colonum, junglerice), 2.19 g ae/ha",62%
